Data on one sequence can be found in patent US20260034200A1, “TOLEROGENIC PEPTIDES” (University of Birmingham, priority 2022, published 2026).

The test system of assay [1] is PBMCs from T1D patients (CD25+ CD71+ CTVmid CD4+ T-cells). The experiment in a line: FAIM assay with PBMCs from T1D patients. The settings on record: 34/38 T1D patients. Type of assay: cell-based, human. From the text:
FIG. 7. GAD65 P10Sol response rate in T1D patients. (A) T1D PBMCs were screened using the FAIM assay for responsiveness to GAD65 P10 30-mer and GAD65 P10Sol with paired ^3H-thymidine samples were acquired for each condition. A positive response for FAIM assay required a proliferating CD25^+ CD71^+ CD4 T-cell count >25 and the population SI to be ≥2× the negative control. A positive response for the ^3H-thymidine assay required raw counts >1000 and a SI of ≥3× the negative control. […] The scale for both heat maps is Log 2 (stimulation index (SI)). […] (B) Agreement analysis for the outcomes of the flow cytometric and ^3H-thymidine proliferation readouts of the FAIM assay. (C) Paired analysis of stimulation indexes from FAIM^+ and ^3H-thymidine readouts, wilcoxon matched-pairs sign rank test.
Soluble candidate peptide GAD65 P10Sol (SEQ ID NO 23) was used as a representative peptide and tested for induction of tolerance in a suitable HLA-DR transgenic mouse model (FIG. 1A). […] The FAIM assay involves a fluorescent dye-labelled CD4^+ cell enriched culture with a primary flow cytometric readout assessing CD4 T-cell fluorescent dye dilution and cell-surface activation marker expression with optional paired readouts of ^3H-thymidine incorporation and secreted cytokine measurement. […]

The next assay concerns HLA-DR4 transgenic mice. Description: Peptide immunogenicity in HLA-DR transgenic mice (immunisation). The class given is in vivo, mouse. To be noted: HLA-DR4 transgenic mice (HLA-DRB1*04:01); data not shown. As for the experimental part: HLA-DR4 transgenic mice were injected subcutaneously with Complete Freund's Adjuvant (CFA) and 100 μg of GAD65 P10 30-mer. After 10 days, splenocytes were isolated and re-stimulated with GAD65 P10 30-mer for a further 4-5 days before fusion with hypoxanthine-aminopterin-thymidine (HAT) sensitive BW5147 cells using polyethylene glycol (PEG). Fused hybridomas were expanded in HAT selection media before antigen-specific screening. Co-cultures of 1×10^5 hybridomas and 2×10^5 Priess cells (an Epstein-Barr Virus (EBV) transformed DR4 (DRB1*04:01) expressing human cell line (ECACC 86052111)) as antigen presenting cells (APCs) were incubated for 48 h in a 96-well plate with peptide, whole GAD65 protein, or media only. Antigen-specific responses were determined by IL-2 secretion into culture supernatant by ELISA assay (BioLegend 431004). Hybridomas that proliferated in response to both GAD65 protein and GAD65 30-mer were single cell cloned by limiting dilution.
Generation of hybridomas that respond to both the GAD65 protein and the P10 30-mer peptide means that these hybridomas can recognise naturally processed peptide presented by APCs—a property shown to be critical for successful peptide immunotherapy design (Anderton et al 2002).

Assay [2] concerns MHC class II molecules on fixed or non-fixed HLA-DR4 transgenic mouse splenocytes (hybridoma SC3 readout). The experiment in a line: Fixed APC T-cell hybridoma screen. Type of assay: cell-based. The settings on record: co-culture with formaldehyde fixed and non-fixed HLA-DR4 splenocytes, 48 h. Here is the method:
Splenocytes from HLA-DR4 transgenic mice were formaldehyde fixed by the following protocol performed at room temperature; 5 min incubation with 0.5% w/v formaldehyde in PBS at 1×10^6 cells/mL quenched by addition of an equal volume of 0.4 M glycine in PBS solution for a further 5 min, before three washes with cold PBS. T-cell hybridoma screens were set up using 1×10^5 hybridomas and either 2×10^5 formaldehyde fixed APCs or 2×10^5 non-fixed APCs for 48 h co-culture with stimulant or control and responses measured by IL-2 secretion.
The next step was to test if GAD65 P10.5.C+1.6K (P10Sol; SEQ ID NO 23) could bind to: (i) MHC class II molecules without antigen processing and, (ii) to steady-state CD11c^+ APCs. These properties are good indicators of whether a peptide can induce tolerance and be characterised as an apitope (Shepard et al., 2021). Formaldehyde fixation of splenocytes inhibits antigen processing and so to test whether GAD65 P10Sol could bind directly to cell-surface MHC class II without antigen processing, GAD65 P10-specific hybridoma SC3 was co-cultured with fixed or non-fixed splenocytes from HLA-DR4 transgenic mice. […] To test whether P10Sol could bind to steady-state CD11c^+ APCs in vivo, HLA-DR4 transgenic mice were injected with 80 μg of P10Sol or PBS, with CD11c^+ splenocytes isolated 1 h later and co-cultured with GAD65 P10 hybridomas SC3 or SC22. […]

“DAAWGGGLLMSRKHKWKLSGVERANSVTWN [P10 30-mer]”: in assay [1], the “T1D patients responding (FAIM+)” value is listed as 89%. The response to immunisation result in the assay with HLA-DR4 transgenic mice is reported as “responded well”. The “IL-2 response from hybridoma SC3” value in assay [2] was “strong IL-2 responses”.
